Among the data in PubChem BioAssay (NCI) are GI50 and TGI values, retold here.

Among the test systems are CCRF-CEM leukemia; NCI-H226 lung; T-47D breast; 786-0 renal; M14 melanoma; MALME-3M melanoma; MDA-N; OVCAR-5 ovarian; SNB-75 CNS.
Holding throughout (test): NCI anticancer screen, dose series, 48 h

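Test compounds were applied to cells in 96-well plates for 48 hours at 5 doses. Here, GI50 denotes the concentration required for 50% inhibition of growth. TGI marks complete inhibition of growth.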

Turning to `NC(N)=N/N=C/c1c(-c2cccs2)nc2n1CCS2`, the GI50 in the assay with CCRF-CEM leukemia is 17.2 µM; in the assay with NCI-H226 lung, 15.9 µM; in the assay on T-47D breast, 17.5 µM. Also, the TGI in the assay on CCRF-CEM leukemia was 34 µM; in the assay with NCI-H226 lung, 31.8 µM; in the assay with T-47D breast it was 37.3 µM.

Take `CCOC(=O)c1cccc(N=Nc2ncc(/C=C/C(=O)OC)[nH]2)c1`: the TGI is > 100 µM in the assay on 786-0 renal; > 100 µM in the assay with CCRF-CEM leukemia; 76 µM with M14 melanoma; 70.3 µM in the assay with MALME-3M melanoma; > 100 µM in the assay with MDA-N; > 100 µM with NCI-H226 lung. The TGI with OVCAR-5 ovarian is > 100 µM; in the assay with SNB-75 CNS, 92.4 µM; in the assay with T-47D breast, 89.7 µM.

As to `C#C[C@]1(O)[C@@H](CO)O[C@@H](n2ccc(=O)[nH]c2=O)[C@@H]1O`, the TGI in the assay with CCRF-CEM leukemia is > 100 µM; with M14 melanoma, 6.77 µM; in the assay on MALME-3M melanoma, 7.62 µM; in the assay on MDA-N, 1.71 µM; in the assay on NCI-H226 lung it was 2.66 µM; in the assay on OVCAR-5 ovarian, > 100 µM. In addition, the TGI in the assay on T-47D breast was found to be 1.9 µM.

On to `CN(CCN1C(=O)c2cccc3cccc(c23)C1=O)CCN1C(=O)c2cccc3cccc(c23)C1=O`, for which the TGI with 786-0 renal is 27.5 µM; in the assay with CCRF-CEM leukemia, 6.91 µM; with M14 melanoma, > 100 µM; in the assay with MALME-3M melanoma, > 100 µM; with NCI-H226 lung, 75.2 µM; with OVCAR-5 ovarian, > 100 µM. Besides, the values for the TGI in the assay on SNB-75 CNS and with T-47D breast were 49.9 µM and 10.2 µM, respectively.

`c1ccc(C[N+]23C(CC[C@H]2c2ccccc2)CC[C@H]3c2ccccc2)cc1` (stereo partly drawn): the TGI in the assay on 786-0 renal is > 100 µM; in the assay with CCRF-CEM leukemia, > 100 µM; with M14 melanoma it was 93 µM; with MALME-3M melanoma it was > 100 µM; in the assay on MDA-N, 98.9 µM; with NCI-H226 lung, 87.8 µM. Also, the TGI with OVCAR-5 ovarian is > 100 µM; in the assay on SNB-75 CNS, 75 µM; in the assay on T-47D breast, > 100 µM.

As to `CC(CCCCNC(=O)OC(C)(C)C)NC(=O)NC(C)CCCCNC(=O)OC(C)(C)C` (stereo not drawn), the TGI with 786-0 renal, with CCRF-CEM leukemia, in the assay with M14 melanoma, in the assay with MALME-3M melanoma, in the assay with MDA-N and in the assay on NCI-H226 lung was > 100 µM in each case. Also, the TGI in the assay with OVCAR-5 ovarian, with SNB-75 CNS and with T-47D breast was > 100 µM each time.

On to `Fc1c(F)c(F)c(CSc2nc3ccccc3[nH]2)c(F)c1F`, for which the TGI in the assay on CCRF-CEM leukemia, with M14 melanoma, in the assay on MALME-3M melanoma, in the assay on MDA-N, with NCI-H226 lung and in the assay on OVCAR-5 ovarian was > 100 µM in each case. The TGI with SNB-75 CNS and with T-47D breast was > 100 µM in each case.

Take `Oc1ccc(Cl)cc1C1=Nn2c(COc3ccc4c(c3)CCCC4)nnc2SC1`: the TGI with CCRF-CEM leukemia was 46.3 µM; in the assay on M14 melanoma, 29.5 µM; in the assay with MALME-3M melanoma, > 100 µM; in the assay with MDA-N, 30.2 µM; with OVCAR-5 ovarian, 34.6 µM; in the assay on T-47D breast, 34.3 µM.

With `COc1cc2cc[n+](C)c(Cc3ccc(Oc4cc(Cc5c6cc(OC)c(OC)cc6cc[n+]5C)ccc4OC)cc3)c2cc1OC`, the TGI with 786-0 renal, in the assay on CCRF-CEM leukemia, with M14 melanoma, with MALME-3M melanoma, in the assay on MDA-N and in the assay on NCI-H226 lung was > 100 µM in each case. The TGI in the assay on OVCAR-5 ovarian, in the assay with SNB-75 CNS and in the assay with T-47D breast was > 100 µM in each case.

Consider `CC12OC(C(=O)C13CCC3)C1C(=O)c3c(O)ccc(O)c3C(=O)C12` (stereo not drawn), for which the GI50 with CCRF-CEM leukemia is 0.38 µM; in the assay with M14 melanoma, 0.669 µM; with MALME-3M melanoma it was 1.8 µM; in the assay with NCI-H226 lung, > 100 µM; in the assay with OVCAR-5 ovarian, 2.14 µM; in the assay with SNB-75 CNS, 4.99 µM. Further, the GI50 with T-47D breast was 0.948 µM. The TGI in the assay on CCRF-CEM leukemia is > 100 µM; in the assay with M14 melanoma it was 2.04 µM; in the assay on MALME-3M melanoma, 3.88 µM; with NCI-H226 lung, > 100 µM; in the assay on OVCAR-5 ovarian, 4.29 µM; in the assay with SNB-75 CNS, 20.1 µM. Moreover, the TGI with T-47D breast was determined as 3.2 µM.

With `Nc1csc(-c2scc3c2OCCO3)c1N`, the TGI with 786-0 renal worked out at 33.3 µM; in the assay on M14 melanoma, 35.2 µM; in the assay with MALME-3M melanoma, 36 µM; in the assay with MDA-N, 38.8 µM; in the assay on NCI-H226 lung it was 42.9 µM; in the assay on OVCAR-5 ovarian, 39.9 µM.

In the case of `CCCC(=O)Nc1cc(/C=C/C(=O)N2CC(CCl)c3c2cc(OC(C)=O)c2[nH]cc(C)c32)n(C)c1` (stereo not drawn), the TGI with CCRF-CEM leukemia was 0.000161 µM; in the assay on MALME-3M melanoma, 9.55e-05 µM; with NCI-H226 lung, 0.000748 µM; with SNB-75 CNS, < 2.5e-05 µM; with T-47D breast, 0.0689 µM.

With `COc1ccc(-n2nc(C(=O)c3ccccc3)c3nn4c(=O)cc(-c5ccccc5)nc4nc32)cc1`, the GI50 in the assay on CCRF-CEM leukemia was 28.9 µM; with M14 melanoma it was 30.3 µM; in the assay on MALME-3M melanoma, 34.5 µM; in the assay with NCI-H226 lung, 98.1 µM; with SNB-75 CNS, 37.9 µM; with T-47D breast, 32.4 µM. The TGI in the assay with CCRF-CEM leukemia, in the assay with M14 melanoma, with MALME-3M melanoma, in the assay with NCI-H226 lung, in the assay with SNB-75 CNS and in the assay with T-47D breast was > 100 µM throughout.

On to `Cc1c2ccccc2cc2cccc[n+]12`, for which the TGI in the assay with 786-0 renal was > 100 µM; in the assay on CCRF-CEM leukemia, > 100 µM; with MALME-3M melanoma, 27.9 µM; with MDA-N, > 100 µM; in the assay with OVCAR-5 ovarian, > 100 µM; with SNB-75 CNS it was 83.7 µM.

`O=S(C(c1ccccc1)=P(c1ccccc1)(c1ccccc1)c1ccccc1)c1ccc(Cl)cc1` (stereo not drawn): the TGI with 786-0 renal was > 100 µM; with CCRF-CEM leukemia it was > 100 µM; in the assay on M14 melanoma, > 100 µM; with MDA-N it was 78.6 µM; with NCI-H226 lung it was > 100 µM; with OVCAR-5 ovarian it was > 100 µM. Further, the TGI in the assay with SNB-75 CNS and with T-47D breast was > 100 µM in each case.

Consider `CCCCSCCC(N)P(=O)(O)O` (stereo not drawn), for which the TGI in the assay on CCRF-CEM leukemia, with M14 melanoma, with MDA-N, in the assay on NCI-H226 lung, with OVCAR-5 ovarian and in the assay on SNB-75 CNS was > 100 µM throughout. Moreover, the TGI in the assay on T-47D breast was > 100 µM.

Take `COc1cc(S(=O)(=O)Nc2ccc(-c3csc(/N=C\c4cccc(Oc5ccccc5)c4)n3)cc2)ccc1Cl`: the TGI in the assay with 786-0 renal, in the assay on CCRF-CEM leukemia, with M14 melanoma, in the assay on MALME-3M melanoma, in the assay with NCI-H226 lung and in the assay with OVCAR-5 ovarian was > 100 µM each time. The TGI with SNB-75 CNS was determined as 80.1 µM; with T-47D breast, 34.4 µM.

For `COc1ccc2c3c([nH]c2c1)[C@H](C=C(C)C)N1C(=O)[C@@H]2CCCN2C(=O)[C@@H]1C3`, the TGI with 786-0 renal, with CCRF-CEM leukemia, with M14 melanoma, in the assay with MALME-3M melanoma, with NCI-H226 lung and in the assay on OVCAR-5 ovarian was > 100 µM in each case. Besides, the TGI in the assay with SNB-75 CNS is 61 µM; in the assay with T-47D breast, > 100 µM.

For the molecule `CN(CCc1ccccn1)c1ccc2c(c1)Cc1ccccc1-2`, the TGI in the assay on 786-0 renal was > 100 µM; in the assay with CCRF-CEM leukemia, 68.8 µM; in the assay on M14 melanoma, 94.3 µM; in the assay on MALME-3M melanoma, 93.7 µM; with NCI-H226 lung it was 40.5 µM; in the assay on OVCAR-5 ovarian, > 100 µM. Besides, the TGI came out at 45.2 µM in the assay with SNB-75 CNS and 92.5 µM in the assay with T-47D breast.

As for `O=C1CNc2cc(N3CCCCC3)ccc2N1`, the TGI was > 100 µM in the assay with CCRF-CEM leukemia; > 100 µM in the assay with M14 melanoma; > 100 µM in the assay with MALME-3M melanoma; > 100 µM in the assay on MDA-N; 37.3 µM in the assay with NCI-H226 lung; > 100 µM in the assay on OVCAR-5 ovarian. Moreover, the TGI with SNB-75 CNS and with T-47D breast was > 100 µM throughout.

Consider `Clc1cccc(/C=c2\nc(-c3ccccc3)n3c2nc2ccccc23)c1`, for which the TGI in the assay with 786-0 renal, with CCRF-CEM leukemia, with M14 melanoma, with MALME-3M melanoma, in the assay on MDA-N and in the assay on NCI-H226 lung was > 100 µM throughout. Besides, the TGI in the assay with OVCAR-5 ovarian is > 100 µM; in the assay on SNB-75 CNS it was 81.2 µM.

For `CN(CCCNC(=O)c1nn(-c2ccccc2)c2c1Cc1ccccc1-2)CCCNC(=O)c1nn(-c2ccccc2)c2c1Cc1ccccc1-2`, the TGI in the assay with 786-0 renal was found to be 2.9 µM; with CCRF-CEM leukemia, 2.42 µM; with M14 melanoma, 2.61 µM; in the assay on MALME-3M melanoma it was 2.91 µM; in the assay with MDA-N, 2.66 µM; in the assay on OVCAR-5 ovarian, 3.26 µM. Moreover, the TGI with T-47D breast was 3.6 µM.

In the case of `CS(=O)(=O)Nc1cccc(-c2ccc3ncnc(Nc4cncc(Cl)c4)c3c2)c1`, the GI50 in the assay with CCRF-CEM leukemia is 3.09 µM; with MALME-3M melanoma it was 2.34 µM; in the assay on NCI-H226 lung, 2.21 µM; in the assay with OVCAR-5 ovarian, 2.05 µM; in the assay with SNB-75 CNS, 2.77 µM; with T-47D breast, 0.726 µM. Also, the TGI with CCRF-CEM leukemia is > 100 µM; in the assay with MALME-3M melanoma, 8.38 µM; in the assay on NCI-H226 lung it was 8.23 µM; in the assay with OVCAR-5 ovarian it was > 100 µM; with SNB-75 CNS, > 100 µM; in the assay on T-47D breast it was 6.36 µM.
